Source: patent EP4660182A1, “NAV1.7- AND/OR NAV1.8-INHIBITING ARYL PYRIDINE COMPOUNDS, PROCESSES FOR THE PREPARATION THEREOF, COMPOSITIONS, USES, METHODS FOR TREATMENT USING SAME, AND KITS” (Eurofarma Laboratórios S.A., priority 2023, dated 2024)

How the values were obtained:
[1] = target: T1, human sodium channels Nav 1.8 (Homo sapiens, UniProt Q9Y5Y9); assay: Automated whole-cell voltage-clamp (ScreenPatch 384P) sodium current block, Nav 1.8; assay type: cell-based; settings: CHO cells stably expressing human Nav 1.8; inactivation step -40 mV 8 s, test step 10 mV (TP1A); eight concentrations; exposure at least five minutes; room temperature; read-out: Nav1.8 IC50
T1 construct: expressed in transfected cells
T1 sequence (Q9Y5Y9 whole entry): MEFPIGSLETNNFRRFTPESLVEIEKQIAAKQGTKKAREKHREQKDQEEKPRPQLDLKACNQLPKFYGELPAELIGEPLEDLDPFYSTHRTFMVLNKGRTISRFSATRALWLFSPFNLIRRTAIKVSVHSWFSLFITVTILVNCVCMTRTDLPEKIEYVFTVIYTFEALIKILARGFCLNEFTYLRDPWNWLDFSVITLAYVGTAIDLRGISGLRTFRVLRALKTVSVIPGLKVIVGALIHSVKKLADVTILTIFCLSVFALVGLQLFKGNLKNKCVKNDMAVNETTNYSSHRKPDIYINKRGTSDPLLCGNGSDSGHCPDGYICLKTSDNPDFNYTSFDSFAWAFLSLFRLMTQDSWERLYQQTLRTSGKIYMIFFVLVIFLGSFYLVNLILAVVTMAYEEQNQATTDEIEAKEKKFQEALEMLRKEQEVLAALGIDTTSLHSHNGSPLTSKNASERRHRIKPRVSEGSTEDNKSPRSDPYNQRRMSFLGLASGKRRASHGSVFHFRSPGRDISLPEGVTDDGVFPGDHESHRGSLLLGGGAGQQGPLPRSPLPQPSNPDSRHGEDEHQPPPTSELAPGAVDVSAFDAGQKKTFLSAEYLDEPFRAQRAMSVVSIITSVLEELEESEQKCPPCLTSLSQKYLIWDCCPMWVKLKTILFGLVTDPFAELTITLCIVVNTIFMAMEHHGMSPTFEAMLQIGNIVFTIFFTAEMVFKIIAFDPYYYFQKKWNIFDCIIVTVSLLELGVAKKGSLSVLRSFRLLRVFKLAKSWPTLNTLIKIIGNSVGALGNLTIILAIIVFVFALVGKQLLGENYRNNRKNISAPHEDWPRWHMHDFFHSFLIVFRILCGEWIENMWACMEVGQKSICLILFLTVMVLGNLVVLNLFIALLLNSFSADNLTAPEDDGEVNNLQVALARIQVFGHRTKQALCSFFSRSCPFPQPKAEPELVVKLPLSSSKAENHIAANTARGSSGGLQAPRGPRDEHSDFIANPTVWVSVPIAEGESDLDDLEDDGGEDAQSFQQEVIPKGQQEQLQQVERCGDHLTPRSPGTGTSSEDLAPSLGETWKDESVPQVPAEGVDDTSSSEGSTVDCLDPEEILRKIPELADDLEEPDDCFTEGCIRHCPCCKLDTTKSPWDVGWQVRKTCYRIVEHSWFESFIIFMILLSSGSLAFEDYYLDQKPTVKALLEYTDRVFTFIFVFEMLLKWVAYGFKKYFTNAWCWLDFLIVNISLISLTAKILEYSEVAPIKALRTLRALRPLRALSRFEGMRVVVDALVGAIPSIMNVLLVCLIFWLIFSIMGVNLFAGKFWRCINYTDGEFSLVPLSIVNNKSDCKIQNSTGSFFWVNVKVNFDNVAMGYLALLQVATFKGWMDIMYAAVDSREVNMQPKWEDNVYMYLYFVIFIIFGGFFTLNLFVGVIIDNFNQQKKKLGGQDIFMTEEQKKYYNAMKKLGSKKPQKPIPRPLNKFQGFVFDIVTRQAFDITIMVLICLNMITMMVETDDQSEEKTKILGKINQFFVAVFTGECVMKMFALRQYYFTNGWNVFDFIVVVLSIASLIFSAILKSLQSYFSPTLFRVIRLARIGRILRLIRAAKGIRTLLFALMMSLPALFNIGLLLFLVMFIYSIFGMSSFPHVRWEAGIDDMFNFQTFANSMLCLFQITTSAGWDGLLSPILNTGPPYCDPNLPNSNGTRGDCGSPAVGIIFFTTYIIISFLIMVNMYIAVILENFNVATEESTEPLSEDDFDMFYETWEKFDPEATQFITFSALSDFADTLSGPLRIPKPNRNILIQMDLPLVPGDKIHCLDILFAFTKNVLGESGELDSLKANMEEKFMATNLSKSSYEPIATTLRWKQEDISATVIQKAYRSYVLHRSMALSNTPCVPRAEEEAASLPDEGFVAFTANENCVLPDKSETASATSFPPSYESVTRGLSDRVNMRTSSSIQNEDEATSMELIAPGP
How it was run: (§1)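 Stable CHO lines, whole-cell automated patch clamp at room temperature, ≥5 min exposure, eight concentrations. From -100 mV hold, 8 s at -40 mV, 20 ms at -100 mV, then test pulse to 10 mV (Nav 1.8) or 0 mV (Nav 1.7) at 0.05 Hz; peak-current % block fitted for IC50, averaged over repeats.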

[2] = target: T2, human sodium channels Nav 1.7 (Homo sapiens, UniProt Q15858); assay: Automated whole-cell voltage-clamp (ScreenPatch 384P) sodium current block, Nav 1.7; assay type: cell-based; settings: CHO cells stably expressing human Nav 1.7; inactivation step -40 mV 8 s, test step 0 mV (TP1A); eight concentrations; exposure at least five minutes; room temperature; read-out: Nav1.7 IC50
T2 construct: expressed in transfected cells
T2 sequence (Q15858 whole entry): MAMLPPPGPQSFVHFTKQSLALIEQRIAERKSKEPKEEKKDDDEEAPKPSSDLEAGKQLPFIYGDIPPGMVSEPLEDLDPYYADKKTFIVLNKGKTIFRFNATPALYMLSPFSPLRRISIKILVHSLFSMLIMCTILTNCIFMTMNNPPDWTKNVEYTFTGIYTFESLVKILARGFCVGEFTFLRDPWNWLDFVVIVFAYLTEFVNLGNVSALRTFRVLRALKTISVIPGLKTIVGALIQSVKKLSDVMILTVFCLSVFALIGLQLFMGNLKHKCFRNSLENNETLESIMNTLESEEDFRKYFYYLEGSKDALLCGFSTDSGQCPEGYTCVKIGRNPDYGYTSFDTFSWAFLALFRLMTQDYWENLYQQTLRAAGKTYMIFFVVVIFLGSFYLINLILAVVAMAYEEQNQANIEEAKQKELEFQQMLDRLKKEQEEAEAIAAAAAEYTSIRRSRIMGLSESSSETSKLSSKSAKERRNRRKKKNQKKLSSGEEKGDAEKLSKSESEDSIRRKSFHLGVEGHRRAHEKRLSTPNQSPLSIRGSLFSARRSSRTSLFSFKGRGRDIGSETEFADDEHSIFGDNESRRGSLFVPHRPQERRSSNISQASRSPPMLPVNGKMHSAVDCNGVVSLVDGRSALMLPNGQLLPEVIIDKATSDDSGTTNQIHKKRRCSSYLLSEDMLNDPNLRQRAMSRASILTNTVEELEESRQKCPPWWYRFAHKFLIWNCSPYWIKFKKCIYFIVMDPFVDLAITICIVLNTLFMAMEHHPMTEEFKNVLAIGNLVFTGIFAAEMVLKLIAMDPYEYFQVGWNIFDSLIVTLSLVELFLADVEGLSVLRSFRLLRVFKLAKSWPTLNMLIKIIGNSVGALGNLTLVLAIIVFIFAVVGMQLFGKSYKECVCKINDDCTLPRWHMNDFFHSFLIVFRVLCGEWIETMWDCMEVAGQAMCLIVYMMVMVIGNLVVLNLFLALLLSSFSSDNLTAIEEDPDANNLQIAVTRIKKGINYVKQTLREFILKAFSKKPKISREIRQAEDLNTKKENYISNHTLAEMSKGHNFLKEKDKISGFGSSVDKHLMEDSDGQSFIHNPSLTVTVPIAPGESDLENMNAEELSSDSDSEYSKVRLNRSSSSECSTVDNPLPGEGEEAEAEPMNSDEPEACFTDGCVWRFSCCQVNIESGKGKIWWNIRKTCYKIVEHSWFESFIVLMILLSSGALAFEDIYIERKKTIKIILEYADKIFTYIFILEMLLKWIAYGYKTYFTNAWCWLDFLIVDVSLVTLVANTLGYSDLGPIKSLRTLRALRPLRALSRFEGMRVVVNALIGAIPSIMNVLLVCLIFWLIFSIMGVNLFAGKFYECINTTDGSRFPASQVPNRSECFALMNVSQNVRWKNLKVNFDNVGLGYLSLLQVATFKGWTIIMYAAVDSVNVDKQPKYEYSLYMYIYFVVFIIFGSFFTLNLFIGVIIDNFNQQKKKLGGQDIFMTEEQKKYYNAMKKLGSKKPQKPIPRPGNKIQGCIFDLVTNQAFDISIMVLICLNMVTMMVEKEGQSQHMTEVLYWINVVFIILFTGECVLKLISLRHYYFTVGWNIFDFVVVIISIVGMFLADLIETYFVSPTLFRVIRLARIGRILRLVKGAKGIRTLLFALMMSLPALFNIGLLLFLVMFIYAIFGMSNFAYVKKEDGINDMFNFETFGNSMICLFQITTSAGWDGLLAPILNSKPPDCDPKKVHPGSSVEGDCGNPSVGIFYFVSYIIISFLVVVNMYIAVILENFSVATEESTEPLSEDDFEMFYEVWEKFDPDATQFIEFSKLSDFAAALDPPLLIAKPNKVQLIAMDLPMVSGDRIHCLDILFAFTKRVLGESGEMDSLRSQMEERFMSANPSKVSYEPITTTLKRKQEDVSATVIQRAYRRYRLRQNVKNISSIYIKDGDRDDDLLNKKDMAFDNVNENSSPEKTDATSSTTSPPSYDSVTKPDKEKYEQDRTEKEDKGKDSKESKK
How it was run: as §1

Row | SMILES | IC50 [1] | IC50 [2]
1 | O=C(N/N=C/c1ccccc1F)c1cncc(-c2ccc(OC(F)(F)F)nc2)n1 [Compound 89, (E)-N'-(2-fluorobenzylidene)-6-(6-(trifluoromethoxy)pyridine-3-yl)pyrazine-2-carbohydrazide] | < 500 nM | > 1000 nM
2 | CCOc1ccc(-c2cncc(C(=O)N/N=C/c3cncc(OC)c3)n2)cn1 [Compound 18, (E)-6-(6-ethoxypyridine-3-yl)-N'-((5-methoxypyridine-3-yl)methylene)pyrazine-2-carbohydrazide] | < 500 nM | > 1000 nM
3 | COc1cnc(F)c(/C=N/NC(=O)c2cncc(-c3ccc(O)nc3)n2)c1 [Compound 167, (E)-N'-((2-fluoro-5-methoxypyridine-3-yl)methylene)-6-(6-hydroxypyridine-3-yl) pyrazine-2-carbohydrazide] | > 1000 nM | > 1000 nM
4 | CCOc1ccc(-c2cncc(C(=O)N/N=C/c3cc(OC)cnc3F)c2)cn1 [Compound 74, (E)-6'-ethoxy-N'-((2-fluoro-5-methoxypyridine-3-yl)methylene)-[3,3'-bipyridine]-5-carbohydrazide] | > 1000 nM | > 1000 nM
5 | O=C(N/N=C/c1cccnc1)c1cncc(-c2ccc(OC(F)(F)F)nc2)n1 [Compound 86, (E)-N'-(pyridine-3-ylmethylene)-6-(6-(trifluoromethoxy)pyridine-3-yl)pyrazine-2-carbohydrazide] | > 1000 nM | > 1000 nM
6 | CCOc1ccc(-c2cncc(C(=O)N/N=C/c3ccnn3C(C)C)n2)cn1 [Compound 54, (E)-6-(6-ethoxypyridine-3-yl)-N'-((1-isopropyl-1H-pyrazole-5-yl)methylene)pyrazine-2-carbohydrazide] | < 500 nM | > 1000 nM
7 | CNS(=O)(=O)c1ccc(-c2cncc(C(=O)N/N=C/c3cc(OC)ccc3F)n2)cn1 [Compound 134, (E)-5-(6-(2-(2-fluoro-5-methoxybenzylidene)hydrazine-1-carbonyl)pyrazine-2-yl)-N-methylpyridine-2-sulfonamide] | > 1000 nM | > 1000 nM
8 | CN(C)c1ccc(F)c(/C=N/NC(=O)c2cncc(-c3ccc(OC(F)F)nc3)n2)c1 [Compound 104, (E)-6-(6-(difluoromethoxy)pyridine-3-yl)-N'-(5-(dimethylamino)-2-fluorobenzylidene) pyrazine-2-carbohydrazide] | < 500 nM | > 1000 nM
9 | CCOc1ccc(-c2cncc(C(=O)N/N=C/c3cc(C(=O)O)ccc3F)n2)cn1 [Compound 10, (E)-3-(2-(6-(6-(6-ethoxypyridine-3-yl)pyrazine-2-carbonyl)hydrazinylidene)methyl)-4-fluorobenzoic acid] | > 1000 nM | > 1000 nM
10 | CCOc1ccc(-c2cncc(C(=O)N/N=C/c3cc(O)nc(OC)c3)n2)cn1 [Compound 43, (E)-6-(6-ethoxypyridine-3-yl)-N'-((2-hydroxy-6-methoxypyridine-4-yl)methylene) pyrazine-2-carbohydrazide] | > 1000 nM | > 1000 nM
11 | COc1cnc(F)c(/C=N/NC(=O)c2cncc(-c3ccc(OC(F)F)nc3)n2)c1 [Compound 101, (E)-6-(6-(difluoromethoxy)pyridine-3-yl)-N'-((2-fluoro-5-methoxypyridine-3-yl)methylene)pyrazine-2-carbohydrazide] | < 500 nM | > 1000 nM
12 | COc1ccc(F)c(/C=N/NC(=O)c2cncc(-c3ccc(OC4CC4)nc3)n2)c1 [Compound 77, (E)-6-(6-cyclopropoxypyridine-3-yl)-N'-(2-fluoro-5-methoxybenzylidene)pyrazine-2-carbohydrazide] | < 500 nM | < 500 nM
13 | CCOc1ccc(-c2nc(C(=O)N/N=C/c3cc(OC)ccc3F)cn(C)c2=O)cn1 [Compound 76, (E)-6-(6-ethoxypyridine-3-yl)-N'-(2-fluoro-5-methoxybenzylidene)-4-methyl-5-oxo-4,5-dihydropyrazine-2-carbohydrazide] | > 1000 nM | > 1000 nM
14 | O=C(N/N=C/c1cc(O)cnc1F)c1cncc(-c2ccc(OC(F)F)nc2)n1 [Compound 113, (E)-6-(6-(difluoromethoxy)pyridine-3-yl)-N'-((2-fluoro-5-hydroxypyridine-3-yl)methylene)pyrazine-2-carbohydrazide] | 500 to 1000 nM | > 1000 nM
15 | COc1cnc(F)c(/C=N/NC(=O)c2cncc(-c3cnc(OC(F)F)cc3C)n2)c1 [Compound 160, (E)-6-(6-(difluoromethoxy)-4-methylpyridine-3-yl)-N'-((2-fluoro-5-methoxypyridine-3-yl)methylene)pyrazine-2-carbohydrazide] | < 500 nM | < 500 nM
16 | CN(C)c1cnc(F)c(/C=N/NC(=O)c2cncc(-c3ccc(OC(F)F)nc3)n2)c1 [Compound 105, (E)-6-(6-(difluoromethoxy)pyridine-3-yl)-N'-((5-(dimethylamino)-2-fluoropyridine-3-yl)methylene)pyrazine-2-carbohydrazide] | > 1000 nM | > 1000 nM
17 | COc1ccc(C)c(/C=N/NC(=O)c2cncc(-c3ccc(OC(F)F)nc3)n2)c1 [Compound 102, (E)-6-(6-(difluoromethoxy)pyridine-3-yl)-N'-(5-methoxy-2-methylbenzylidene) pyrazine-2-carbohydrazide] | < 500 nM | > 1000 nM
18 | COc1cncc(/C=N/NC(=O)c2cncc(-c3ccc(OC(F)F)nc3)n2)c1 [Compound 107, (E)-6-(6-(difluoromethoxy)pyridine-3-yl)-N'-((5-methoxypyridine-3-yl)methylene)pyrazine-2-carbohydrazide] | > 1000 nM | > 1000 nM
19 | CCOc1ccc(-c2ccnc(C(=O)N/N=C/c3cc(OC)cnc3F)n2)cn1 [Compound 73, (E)-4-(6-ethoxypyridine-3-yl)-N'-((2-fluoro-5-methoxypyridine-3-yl)methylene) pyrimidine-2-carbohydrazide] | 500 to 1000 nM | > 1000 nM
20 | CC(O)c1ccnc(/C=N/NC(=O)c2cncc(-c3ccc(OC(F)F)nc3)n2)c1 (stereo not drawn) [Compound 114, (E)-6-(6-(difluoromethoxy)pyridine-3-yl)-N'-((4-(1-hydroxyethyl)pyridine-2-yl)methylene)pyrazine-2-carbohydrazide] | > 1000 nM | > 1000 nM
21 | COc1ccc(F)c(/C=N/NC(=O)c2cncc(-c3ccc(S(N)(=O)=O)nc3)n2)c1 [Compound 133, (E)-5-(6-(2-(2-fluoro-5-methoxybenzylidene)hydrazine-1-carbonyl)pyrazine-2-yl)pyridine-2-sulfonamide] | > 1000 nM | > 1000 nM
22 | CCOc1ccc(-c2cncc(C(=O)N/N=C/c3cc(OC)cnc3F)n2)c(C)n1 [Compound 152, (E)-6-(6-ethoxy-2-methylpyridine-3-yl)-N'-((2-fluoro-5-methoxypyridine-3-yl)methylene)pyrazine-2-carbohydrazide] | < 500 nM | > 1000 nM
23 | [2H]C([2H])([2H])Oc1cnc(F)c(/C=N/NC(=O)c2cncc(-c3ccc(OC([2H])([2H])C([2H])([2H])[2H])nc3)n2)c1 [Compound 174, (E)-6-(6-(ethoxy-d5)pyridine-3-yl)-N'-((2-fluoro-5-(methoxy-d3)pyridine-3-yl)methylene)pyrazine-2-carbohydrazide] | < 500 nM | > 1000 nM
24 | CCOc1ccc(-c2cncc(C(=O)N/N=C/c3cc(OC4CC4)ccc3F)n2)cn1 [Compound 6, (E)-N'-(5-cyclopropoxy-2-fluorobenzylidene)-6-(6-ethoxypyridine-3-yl)pyrazine-2-carbohydrazide] | < 500 nM | > 1000 nM
